Assay [1] concerns LPS-stimulated human peripheral blood mononuclear cells (IL1-β). Format: cell-based. The conditions noted are these: Table 12, cells stimulated with 10 ng/ml LPS; for IL1β Production: LPS alone 1313 (HH2 derivatives), 1927 (1018 derivatives), 2455 (1002 and hybrid peptides) pg/ml.
The subject of assay [2] is methicillin resistant Staphylococcus aureus (MRSA) biofilm. The conditions noted are these: approximate peptide concentration […] (around 3 μg/ml); compared to untreated samples. In short, it runs like this:
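Peptide was present from inoculation onward, with bacteria seeded at 1/100 from overnight cultures into BM2 biofilm medium or Luria Broth. Crystal violet staining of surface-attached cells (A595) quantified biofilm reduction at 22–46 h. K. pneumoniae was additionally screened in a real-time Bioflux flow device for some peptides.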

For assay [3], the system named is human peripheral blood mononuclear cells (MCP-1). The experiment in a line: SPOT-synthesized derivative screen: production of chemokine MCP-1. It is filed as cell-based. The conditions noted are these: Table 12, No LPS, human PBMC, peptide at ~18-24 μM; for MCP1: background subtracted 139 (HH2 derivatives), 170 (1018 derivatives), 242 (1002 and hybrid peptides) pg/ml. In short, it runs like this:
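MCP-1 was quantified by capture ELISA in cleared culture supernatants of treated human peripheral blood mononuclear cells. Cells came from heparinized volunteer blood via Ficoll gradient and were seeded at 0.75 to 1×10^6 cells/ml (37 °C, 5% CO2).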

Ends that are not written are not given here.

With “1018-G12: single substituted 1018 peptide (VRLIVAVRIWRG-NH2) [Peptide 1018-G12]”, in assay [1], the “Fold change in IL1β relative to no peptide LPS stimulated cells” value was found to be 0.37 and the “IL1β Production” value was 490 pg/mL. Further, the “% Biofilm inhibition” value in assay [2] is 53%. For the same substance, in assay [3], the “Fold increase in MCP1 cf. untreated cells” value (“Fold increase” for short) stood at 1.0 and the “MCP1” value amounted to 7 pg/mL.

As to “1018-I1: single substituted 1018 peptide (IRLIVAVRIWRR-NH2) [Peptide 1018-I1]”, in assay [1], the “Fold change in IL1β relative to no peptide LPS stimulated cells” value is 0.11 and the “IL1β Production” value amounted to 138 pg/mL. In addition, the “% Biofilm inhibition” value in assay [2] stood at 56%. In addition, in assay [3], the “Fold increase” value came to 18 and the “MCP1” value turned out to be 2873 pg/mL.

For “1018-I2: single substituted 1018 peptide (VILIVAVRIWRR-NH2) [Peptide 1018-I2]”, in assay [1], the “Fold change in IL1β relative to no peptide LPS stimulated cells” value turned out to be 0.42 and the “IL1β Production” value is 557 pg/mL. Moreover, the “% Biofilm inhibition” value in assay [2] was 61%. In assay [3], the “Fold increase” value turned out to be 44 and the “MCP1” value was determined as 7342 pg/mL.

Turning to “1018-I3: single substituted 1018 peptide (VRIIVAVRIWRR-NH2) [Peptide 1018-I3]”, in assay [1], the “Fold change in IL1β relative to no peptide LPS stimulated cells” value is listed as 0.12 and the “IL1β Production” value amounted to 156 pg/mL. Further, in assay [2], the “% Biofilm inhibition” value was 68%. For the same substance, in assay [3], the “Fold increase” value came out at 0.7 and the “MCP1” value was -50 pg/mL.

Consider “1018-I5: single substituted 1018 peptide (VRLIIAVRIWRR-NH2) [Peptide 1018-I5]”, for which, in assay [1], the “Fold change in IL1β relative to no peptide LPS stimulated cells” value is reported as 0.10 and the “IL1β Production” value came to 127 pg/mL. The “% Biofilm inhibition” value in assay [2] came out at 60%. Further, in assay [3], the “Fold increase” value is recorded as 13 and the “MCP1” value was 2103 pg/mL.

On to “1018-I6: single substituted 1018 peptide (VRLIVIVRIWRR-NH2) [Peptide 1018-I6]”, for which, in assay [1], the “Fold change in IL1β relative to no peptide LPS stimulated cells” value is 0.44 and the “IL1β Production” value stood at 582 pg/mL. Also, the “% Biofilm inhibition” value in assay [2] was 65%. For the same substance, in assay [3], the “Fold increase” value came to 1.6 and the “MCP1” value turned out to be 110 pg/mL.

As to “1018-I7: single substituted 1018 peptide (VRLIVAIRIWRR-NH2) [Peptide 1018-I7]”, in assay [1], the “Fold change in IL1β relative to no peptide LPS stimulated cells” value is listed as 0.10 and the “IL1β Production” value amounted to 127 pg/mL. The “% Biofilm inhibition” value in assay [2] is listed as 63%. For the same substance, in assay [3], the “Fold increase” value was found to be 5.2 and the “MCP1” value amounted to 714 pg/mL.

“1018-I8: single substituted 1018 peptide (VRLIVAVIIWRR-NH2) [Peptide 1018-I8]”: in assay [1], the “Fold change in IL1β relative to no peptide LPS stimulated cells” value is on record as 0.86 and the “IL1β Production” value turned out to be 1125 pg/mL. In assay [2], the “% Biofilm inhibition” value is 39%. In assay [3], the “Fold increase” value was found to be 1.0 and the “MCP1” value came out at 2 pg/mL.

Consider “1018-I10: single substituted 1018 peptide (VRLIVAVRIIRR-NH2) [Peptide 1018-I10]”, for which, in assay [1], the “Fold change in IL1β relative to no peptide LPS stimulated cells” value worked out at 0.10 and the “IL1β Production” value amounted to 135 pg/mL. Further, the “% Biofilm inhibition” value in assay [2] turned out to be 58%. Further, in assay [3], the “Fold increase” value was determined as 1.3 and the “MCP1” value came out at 56 pg/mL.

“1018-I11: single substituted 1018 peptide (VRLIVAVRIWIR-NH2) [Peptide 1018-I11]”: in assay [1], the “Fold change in IL1β relative to no peptide LPS stimulated cells” value amounted to 1.35 and the “IL1β Production” value was 1775 pg/mL. Moreover, the “% Biofilm inhibition” value in assay [2] is given as 16%. Besides, in assay [3], the “Fold increase” value is given as 1.5 and the “MCP1” value came out at 83 pg/mL.

The values above are taken from patent US20190315823A1, “SMALL CATIONIC ANTI-BIOFILM AND IDR PEPTIDES” (priority 2013, published 2019).
